Laboratory results reported in patent US8933234B2, “O-amino benzonitrile compounds, method for preparing same and uses thereof” (Hangzhou Udragon Chemical Co., Ltd., priority 2011, dated 2015).

Legend:
Diamondback moth = test: Insecticidal effect on diamondback moth (cabbage leaf disc dip test); assay type: in vivo; details: for Insecticidal Effect (%) Diamondback moth (1 mg/L): leaf disc immersed 10 seconds, larvae, mortality; for mortality at 1 µg/mL: Plutella xylostella, foliar, 72 h, concentration of 1 mg/L, 3 days
Protocol: (§1) The compound to be tested dissolved in acetone and 1‰ Tween-80 solution, and was formulated to 50 ml of the test solution with desired concentration. The cabbage leaves having been cleaned and dried were made into leaf disc with diameter of 1 cm with hole puncher. The leaf disc were immersed in the drug liquid for 10 seconds and then removed, dried naturally, loaded in the culture dish. 10 […] diamondback moth larvae were introduced per dish and repeated for three times. After the treatment, the dishes were placed into a room with temperature of 20° C., relative humidity of 60-70% and without illumination to take an indoor culture. The survival of insects was surveyed and the mortality was calculated.

pink stem borer = test: Insecticidal effect on pink stem borer (method of Test Example 1); assay type: in vivo; details: for Insecticidal Effect (%) pink stem borer (2 mg/L): leaf disc immersed 10 seconds, mortality
Protocol: [The procedure below names another organism; the source lists this organism under the same test.] as §1

SMILES | Insecticidal Effect (%) Diamondback moth (1 mg/L) (Diamondback moth) | Insecticidal Effect (%) pink stem borer (2 mg/L) (pink stem borer) | mortality at 1 µg/mL (Diamondback moth) | mortality to pink stem borer in 3 days (pink stem borer; concentration of 2 mg/L, 3 days)
Cc1cc(Cl)cc(C#N)c1NC(=O)c1cc(Br)nn1-c1ncccc1Cl [Compound I-1] | 50% | 40% | – | –
Cc1cc(Cl)cc(C#N)c1NC(=O)c1cc(Br)nn1-c1ncc(Cl)cc1Cl [Compound I-2] | 80% | 50% | – | –
Cc1cc(Cl)cc(C#N)c1NC(=O)c1cc(Br)nn1-c1ncc(Cl)cc1F [Compound I-3] | 100% | 85% | 100% | –
N#Cc1cc(Cl)cc(Cl)c1NC(=O)c1cc(Br)nn1-c1ncccc1Cl [Compound I-4] | 100% | 98% | 100% | 98%
N#Cc1cc(Cl)cc(Cl)c1NC(=O)c1cc(Br)nn1-c1ncc(Cl)cc1Cl [Compound I-5] | 100% | 70% | 100% | –
N#Cc1cc(Cl)cc(Cl)c1NC(=O)c1cc(Br)nn1-c1ncc(Cl)cc1F [Compound I-6] | 100% | 90% | 100% | –
Cc1cc(Cl)cc(C#N)c1NC(=O)c1cc(Br)nn1-c1ncc(C(F)(F)F)cc1Cl [Compound I-7] | 90% | 80% | – | –
